The text below walks through data of patent publication US12473284B2, “Small molecule inhibitors of ULK1” (Memorial Sloan Kettering Cancer Center, priority 2019, dated 2025).

Sequence of protein kinase CDK7 (P50613 whole entry): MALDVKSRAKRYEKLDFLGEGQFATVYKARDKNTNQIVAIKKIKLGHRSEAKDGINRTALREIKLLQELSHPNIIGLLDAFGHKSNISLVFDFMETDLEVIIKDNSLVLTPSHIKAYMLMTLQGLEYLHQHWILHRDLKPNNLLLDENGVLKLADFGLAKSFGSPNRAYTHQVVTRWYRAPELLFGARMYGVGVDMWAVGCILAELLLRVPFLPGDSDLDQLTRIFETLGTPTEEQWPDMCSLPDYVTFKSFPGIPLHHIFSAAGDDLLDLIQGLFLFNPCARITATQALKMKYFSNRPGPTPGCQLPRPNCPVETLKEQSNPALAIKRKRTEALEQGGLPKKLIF
Sequence of protein kinase CDK7 (P51946 whole entry partner): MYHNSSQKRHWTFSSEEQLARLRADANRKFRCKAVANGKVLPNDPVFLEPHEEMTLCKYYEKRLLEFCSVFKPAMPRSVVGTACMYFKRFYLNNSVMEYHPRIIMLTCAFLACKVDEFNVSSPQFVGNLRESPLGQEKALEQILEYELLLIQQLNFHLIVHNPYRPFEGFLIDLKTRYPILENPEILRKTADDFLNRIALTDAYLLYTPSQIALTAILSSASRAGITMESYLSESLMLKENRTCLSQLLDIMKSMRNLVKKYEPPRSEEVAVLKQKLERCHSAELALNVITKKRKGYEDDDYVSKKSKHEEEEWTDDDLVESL
Sequence of protein kinase CDK7 (P51948 whole entry partner): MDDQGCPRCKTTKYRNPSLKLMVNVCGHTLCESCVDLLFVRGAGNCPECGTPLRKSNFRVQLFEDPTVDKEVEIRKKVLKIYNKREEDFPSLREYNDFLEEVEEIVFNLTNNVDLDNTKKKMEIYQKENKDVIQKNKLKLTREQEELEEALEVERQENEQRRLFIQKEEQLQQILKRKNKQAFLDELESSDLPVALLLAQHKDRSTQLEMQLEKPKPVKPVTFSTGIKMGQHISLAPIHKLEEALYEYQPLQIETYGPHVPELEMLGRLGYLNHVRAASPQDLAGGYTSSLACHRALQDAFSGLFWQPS
Sequence of ULK1/Atg13 kinase complex (O75385 whole entry): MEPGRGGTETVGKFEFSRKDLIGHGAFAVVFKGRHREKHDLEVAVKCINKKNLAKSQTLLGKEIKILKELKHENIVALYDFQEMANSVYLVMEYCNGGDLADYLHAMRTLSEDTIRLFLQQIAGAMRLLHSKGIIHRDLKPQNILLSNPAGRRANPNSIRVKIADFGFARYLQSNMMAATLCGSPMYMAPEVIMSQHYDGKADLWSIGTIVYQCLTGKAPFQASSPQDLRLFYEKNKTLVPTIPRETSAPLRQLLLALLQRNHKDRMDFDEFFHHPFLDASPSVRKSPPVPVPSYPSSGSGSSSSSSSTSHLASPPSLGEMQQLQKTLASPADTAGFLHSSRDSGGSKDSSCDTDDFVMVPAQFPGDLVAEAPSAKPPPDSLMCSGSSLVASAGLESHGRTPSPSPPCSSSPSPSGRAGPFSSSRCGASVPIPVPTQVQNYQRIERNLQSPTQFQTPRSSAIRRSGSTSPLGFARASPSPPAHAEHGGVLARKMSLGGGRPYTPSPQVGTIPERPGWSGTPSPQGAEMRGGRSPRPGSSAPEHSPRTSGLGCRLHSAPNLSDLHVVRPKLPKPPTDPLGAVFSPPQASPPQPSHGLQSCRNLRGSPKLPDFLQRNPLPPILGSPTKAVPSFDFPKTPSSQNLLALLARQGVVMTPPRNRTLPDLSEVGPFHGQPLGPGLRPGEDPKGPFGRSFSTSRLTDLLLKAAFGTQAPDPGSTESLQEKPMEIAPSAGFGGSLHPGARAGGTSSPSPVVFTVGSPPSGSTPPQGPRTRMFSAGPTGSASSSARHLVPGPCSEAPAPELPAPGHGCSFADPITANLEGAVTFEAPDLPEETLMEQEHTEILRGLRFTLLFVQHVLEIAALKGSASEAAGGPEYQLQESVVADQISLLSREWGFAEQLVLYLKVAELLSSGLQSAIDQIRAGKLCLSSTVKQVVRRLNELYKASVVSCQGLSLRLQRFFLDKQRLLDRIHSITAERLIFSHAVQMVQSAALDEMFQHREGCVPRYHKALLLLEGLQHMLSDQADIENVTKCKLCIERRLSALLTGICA
Sequence of ULK1/Atg13 kinase complex (O75143 whole entry partner): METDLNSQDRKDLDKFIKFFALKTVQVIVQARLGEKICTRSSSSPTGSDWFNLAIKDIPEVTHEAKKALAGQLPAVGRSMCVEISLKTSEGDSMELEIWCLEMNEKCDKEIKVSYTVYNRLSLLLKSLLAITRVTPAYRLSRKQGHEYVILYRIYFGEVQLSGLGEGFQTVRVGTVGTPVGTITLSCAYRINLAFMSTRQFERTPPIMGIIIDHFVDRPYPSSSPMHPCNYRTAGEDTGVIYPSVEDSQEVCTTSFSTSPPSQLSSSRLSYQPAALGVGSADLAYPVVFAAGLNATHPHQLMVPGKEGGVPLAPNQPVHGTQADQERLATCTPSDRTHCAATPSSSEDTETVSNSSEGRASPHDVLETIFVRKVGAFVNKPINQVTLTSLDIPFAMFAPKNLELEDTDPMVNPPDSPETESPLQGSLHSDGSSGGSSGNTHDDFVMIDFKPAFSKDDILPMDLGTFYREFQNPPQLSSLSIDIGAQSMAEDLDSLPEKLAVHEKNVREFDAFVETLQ

The first test has as its target ULK1/Atg13 kinase complex (Homo sapiens (Human), UniProt O75385). The test can be described thus: In vitro kinase assay (Kinase-Glo Plus luminescence, MBP 1-20 peptide substrate). The following applies: recombinant His-tagged ULK1/Atg13, 75 min at room temperature; salt form as in Table 1. The format is biochemical. On the procedure: In vitro kinase assays were performed as described below:
Recombinant His-tagged ULK1/Atg13 kinase complex was expressed in […] insect cells, and affinity-purified by Ni-NTA beads, aliquoted and stored at −80° C.
Compounds were dissolved in DMSO to make 10 mM stock solution, aliquoted and stored at −80° C.
1× kinase buffer was prepared: 20 mM Tris-HCl, pH7.5, 100 mM NaCl, 5 mM MgCl2, 0.5 mg/ml BSA, 5 mM DTT, 0.1% Tween-20.
For compound screening experiment, 1 μl of the 10 mM compound stock solution was added using P2.5 pipette into 99 μl 1×kinase buffer to make 100 μM working solution.
For compound titration experiment, 100 μM compound solution was further diluted (with 1×kinase buffer containing 1% DMSO) in a series manner.
30 mM MBP (Myelin basic protein) 1-20 peptide (sequence: […]; SEQ ID NO: 1) was prepared in 1× kinase buffer.
500 μM ATP was prepared in 1× kinase buffer.
Pre-incubation reactions were set up as shown in the Table below and pre-incubated for 10 min at room temperature.
4 μl of 500 μM ATP was added to the pre-incubation reaction (thus the final reaction volume is 20 μl) and incubated for 75 min at room temperature.
20 μl Kinase-Glo Plus (Promega) was added to the reaction (warmed to RT), mixed well and incubated at room temperature for 15 min.
20 μl reaction was pipetted into each well of a white 384-well plate.
the 384-well plate was subjected to brief centrifugation, and luminescence was read in a plate reader.
Calculated inhibition (%) was calculated as follows: […]
For orientation: IC50 means the point on the concentration scale where inhibition reaches its midpoint. For `CC(N)C1CCC(C(=O)Nc2ccnc3[nH]c(-c4cccs4)cc23)CC1` (stereo not shown) [MSK-A177], the IC50 was 0.054 µM.
For the compound `CC(N)C1CCC(C(=O)Nc2ccnc3[nH]c(-c4ccsc4)cc23)CC1` (stereo not shown) [MSK-A176], the IC50 worked out at 0.005 µM.
Consider `COc1ccc(-c2cc3c(CC(=O)C4CCC(C(C)N)CC4)ccnc3[nH]2)cc1` (stereo not shown) [MSK-A188], for which the IC50 is 0.0194 µM.
For the compound `CC(N)C1CCC(C(=O)Cc2ccnc3[nH]c(-c4cccc(F)c4)cc23)CC1` (stereo not shown) [MSK-A191], the IC50 is 0.0206 µM.
Still for that read-out and setting: then `CC(N)C1CCC(C(=O)Nc2ccnc3[nH]c(-c4ccsc4)cc23)CC1` (single isomer, unassigned) [MSK-A176-peak 2, (1r,4r)-4-(1-aminoethyl)-N-(2-(thiophen-3-yl)-1H-pyrrolo[2,3-b]pyridin-4-yl)cyclohexanecarboxamide], with 0.0236 µM; and `CC(N)C1CCC(C(=O)Cc2ccnc3[nH]c(-c4cccc(C(F)(F)F)c4)cc23)CC1` (stereo not shown) [MSK-A194], with 0.0292 µM; and `CC(N)C1CCC(C(=O)Nc2ccnc3[nH]c(-c4ccc5ccccc5c4)cc23)CC1` (stereo not shown) [MSK-A190], with 0.0238 µM.
For `Cc1cccc(-c2cc3c(CC(=O)C4CCC(C(C)N)CC4)ccnc3[nH]2)c1` (stereo not shown) [MSK-A192], the IC50 is 0.0202 µM.
With `C[C@@H](N)C1CCC(C(=O)Nc2ccnc3[nH]c(-c4ccccc4)cc23)CC1` (stereo partly shown) [MSK-A170, (1r,4r)-4-(1-aminoethyl)-N-(2-phenyl-1H-pyrrolo[2,3-b]pyridin-4-yl)cyclohexanecarboxamide], the concentration for half-maximal inhibition (IC50) worked out at 0.018 µM.
`CC(N)C1CCC(C(=O)Nc2ccnc3[nH]c(-c4cccc(F)c4)cc23)CC1` (single isomer, unassigned) [MSK-A191_peak 1, (1r,4r)-4-(1-aminoethyl)-N-(2-(3-fluorophenyl)-1H-pyrrolo[2,3-b]pyridin-4-yl)cyclohexanecarboxamide]: the IC50 was determined as 0.0408 µM.
As for `CC(N)C1CCC(C(=O)Nc2ccnc3[nH]c(-c4ncccn4)cc23)CC1` (stereo not shown) [MSK-A180], the concentration for half-maximal inhibition (IC50) came out at 2.38 µM.
On to `CC(N)C1CCC(C(=O)Nc2ccnc3[nH]c(-c4ncco4)cc23)CC1` (stereo not shown) [MSK-A202], for which the IC50 is 0.156 µM.
Regarding `C[C@@H](N)C1CCC(C(=O)Nc2ccnc3[nH]c(-c4ccccn4)cc23)CC1` (stereo partly shown) [MSK-A172, (1r,4r)-4-(1-aminoethyl)-N-(2-(pyridin-2-yl)-1H-pyrrolo [2,3-b]pyridin-4-yl)cyclohexanecarboxamide], the IC50 turned out to be 0.11 µM.
In the case of `CC(N)C1CCC(C(=O)Nc2ccnc3[nH]c(-c4nccn4C)cc23)CC1` (stereo not shown) [MSK-A171, (1r,4r)-4-(1-aminoethyl)-N-(2-(1-methyl-1H-imidazol-2-yl)-1H-pyrrolo[2,3-b]pyridin-4-yl)cyclohexanecarboxamide], the IC50 amounted to 1.45 µM.
For `CC(N)C1CCC(C(=O)Nc2ccnc3[nH]c(-c4cscn4)cc23)CC1` (stereo not shown) [MSK-A199], the IC50 amounted to 0.109 µM.
With `C[C@@H](N)C1CCC(C(=O)Nc2ccnc3occc23)CC1` (stereo partly shown) [MSK-A091, (1r,4r)-4-(1-aminoethyl)-N-(furo[2,3-b]pyridin-4-yl)cyclohexanecarboxamide], the IC50 is 2.2 µM.
Regarding `CC(N)C1CCC(C(=O)Nc2ccnc3[nH]c(-n4cccn4)cc23)CC1` (stereo not shown) [MSK-A173, (1r,4r)-N-(2-(1H-pyrazol-1-yl)-1H-pyrrolo[2,3-b]pyridin-4-yl)-4-(1-aminoethyl)cyclohexanecarboxamide], the IC50 was 0.63 µM.
In the case of `CC(N)C1CCC(C(=O)Cc2ccnc3[nH]c(-c4cccc(C5CC5)c4)cc23)CC1` (stereo not shown) [MSK-A193], the IC50 is 0.0263 µM.
For the compound `COC(=O)[C@H](N)[C@H]1CC[C@H](C(=O)Nc2ccnc3[nH]c(-c4ccccc4)cc23)CC1` [MSK-A183, (R)-methyl 2-amino-2-((1r,4R)-4-((2-phenyl-1H-pyrrolo[2,3-b]pyridin-4-yl)carbamoyl)cyclo-hexyl)acetate], the IC50 worked out at 0.185 µM.
Regarding `CC(N)C1CCC(C(=O)Nc2ccnc3[nH]c(-c4nccs4)cc23)CC1` (stereo not shown) [MSK-A178], the IC50 worked out at 0.047 µM.
Regarding `COC(=O)[C@@H](N)[C@H]1CC[C@H](C(=O)Nc2ccnc3[nH]c(-c4ccccc4)cc23)CC1` [MSK-A182, (S)-methyl 2-amino-2-((1r,4S)-4-((2-phenyl-1H-pyrrolo[2,3-b]pyridin-4-yl)carbamoyl)cyclo-hexyl)acetate], the IC50 was 0.0229 µM.
As for `CC(N)C1CCC(C(=O)Nc2ccnc3[nH]c(-c4ccc(F)cc4)cc23)CC1` (single isomer, unassigned) [MSK-A184_peak 1, (1r,4r)-4-(1-aminoethyl)-N-(2-(4-fluorophenyl)-1H-pyrrolo[2,3-b]pyridin-4-yl)cyclohexanecarboxamide], the IC50 was determined as 0.0155 µM.
Take `CC(N)C1CCC(C(=O)Nc2ccnc3[nH]c(-c4ccsc4)cc23)CC1` (single isomer, unassigned) [MSK-A176-peak 1, (1r,4r)-4-(1-aminoethyl)-N-(2-(thiophen-3-yl)-1H-pyrrolo[2,3-b]pyridin-4-yl)cyclohexanecarboxamide]: the IC50 was 0.0562 µM.
For the compound `CC(N)C1CCC(C(=O)Nc2ccnc3[nH]c(-n4ccnc4)cc23)CC1` (stereo not shown) [MSK-A181, (1r,4r)-N-(2-(1H-imidazol-1-yl)-1H-pyrrolo[2,3-b]pyridin-4-yl)-4-(1-aminoethyl)cyclohexanecarboxamide], the IC50 was 0.515 µM.
For the compound `CC(N)C1CCC(C(=O)Nc2ccnc3[nH]c(-c4ccc(F)cc4)cc23)CC1` (single isomer, unassigned) [MSK-A184_peak 2, (1r,4r)-4-(1-aminoethyl)-N-(2-(4-fluorophenyl)-1H-pyrrolo[2,3-b]pyridin-4-yl)cyclohexanecarboxamide], the IC50 was 0.0389 µM.
Turning to `CC(N)C1CCC(C(=O)Nc2ccnc3[nH]c(-c4cccc(F)c4)cc23)CC1` (single isomer, unassigned) [MSK-A191_peak 2, (1r,4r)-4-(1-aminoethyl)-N-(2-(3-fluorophenyl)-1H-pyrrolo[2,3-b]pyridin-4-yl)cyclohexanecarboxamide], the IC50 turned out to be 0.0591 µM.
`CC(N)C1CCC(C(=O)Nc2ccnc3[nH]c(-c4ncc[nH]4)cc23)CC1` (stereo not shown) [MSK-A157, (1r,4r)-N-(2-(1H-imidazol-2-yl)-1H-pyrrolo[2,3-b]pyridin-4-yl)-4-(1-aminoethyl)cyclohexanecarboxamide]: the half-maximal inhibitory concentration (IC50) is 0.073 µM.
As for `CC(N)C1CCC(C(=O)Cc2ccnc3[nH]c(-c4ccc(F)cc4)cc23)CC1` (stereo not shown) [MSK-A184], the half-maximal inhibitory concentration (IC50) was 0.0189 µM.
For `CC(N)C1CCC(C(=O)Cc2ccnc3[nH]c(-c4ccc(C#N)cc4)cc23)CC1` (stereo not shown) [MSK-A189], the IC50 was 0.0183 µM.

A further test addresses protein kinase CDK7 (Homo sapiens (Human), UniProt P50613). The test can be described thus: Inhibition of protein kinase CDK7. The format is biochemical.
Conditions: not given
Consider `CC(N)C1CCC(C(=O)Nc2ccnc3[nH]c(-c4ccsc4)cc23)CC1` (stereo not shown) [MSK-A176], for which the “inhibition of protein kinase CDK7 (potency)” value is “low nM potency”.
`CC(N)C1CCC(C(=O)Cc2ccnc3[nH]c(-c4cccc(F)c4)cc23)CC1` (stereo not shown) [MSK-A191]: the “inhibition of protein kinase CDK7 (potency)” value is “low nM potency”.
Same read-out and setting: the same measure for `CC(N)C1CCC(C(=O)Cc2ccnc3[nH]c(-c4ccc(F)cc4)cc23)CC1` (stereo not shown) [MSK-A184]: “low nM potency”; for `CC(N)C1CCC(C(=O)Cc2ccnc3[nH]c(-c4ccc(C#N)cc4)cc23)CC1` (stereo not shown) [MSK-A189]: “low nM potency”.

The next test has as its system MiaCaPa-2 cancer cells. The test can be described thus: MiaCaPa-2 pancreatic ductal adenocarcinoma (PDAC) cell line xenograft mice model. It is filed as in vivo. The following applies: MSK-A170-PEAK2 10 mg/kg + trametinib 0.5 mg/kg, i.p., 6 days a week, 17 days, female athymic nude mice. The procedure:
FIG. 1 illustrates the final tumor weights for four groups on mice in a MiaCaPa-2 cell line xenograft mouse model, where “Control” group mice were treated 6 days a week, i.p., for 17 days with dosing vehicle; “ULK1i” group mice were treated 6 days a week, i.p., for 17 days with a compound of the present technology, 10 mg/kg; “MEKi” group mice were treated 6 days a week, i.p., for 17 days with MEK1 inhibitor trametinib, 0.5 mg/kg; “ULK1i+MEKi” group mice were treated 6 days a week, i.p., for 17 days with a combination of the compound of the present technology (10 mg/kg) and trametinib (0.5 mg/kg), according to the working examples.
FIG. 2 provides the tumor volume over time for each group of the xenograft mouse model study that provided the data of FIG. 1, according to the working examples.
Female athymic nude (Foxn1^nu) mice were implanted with 2×10^6 MiaCaPa-2 cancer cells per animal subcutaneously at the right flank. […] The tumor volume was measured on 1, 3, 5, 7, 9, 11, 13, 15, and 17. […]
On to `C[C@@H](N)C1CCC(C(=O)Nc2ccnc3[nH]c(-c4ccccc4)cc23)CC1` (single isomer, unassigned) [MSK-A170-PEAK2], for which the “tumor weight / tumor volume, combination with trametinib versus trametinib alone” value is on record as “significantly improved results”.
